Measurements as given in US8735424B2 (Novartis AG, priority 2008, dated 2014).

Columns and labels:
Assay type in all cases: biochemical
PIM1 = PIM1 (Homo sapiens, UniProt P11309); experiment: Pim1 ATP depletion assay; settings: 20 μM ATP, 2.5 nM PIM1
Experimental: The activity of PIM1 is measured using a luciferase-luciferin based ATP detection reagent to quantify ATP depletion resulting from kinase-catalyzed phosphoryl transfer to a peptide substrate. Compounds to be tested are dissolved in 100% DMSO and directly distributed into white 384-well plates at 0.5 μl per well. To start the reaction, 10 μl of 5 nM Pim1 kinase and 80 μM BAD peptide (RSRHSSYPAGT-OH) in assay buffer (50 mM HEPES pH 7.5, 5 mM MgCl2, 1 mM DTT, 0.05% BSA) is added into each well. After 15 minutes, 10 μl of 40 μM ATP in assay buffer is added. Final assay concentrations are 2.5 nM PIM1, 20 μM ATP, 40 μM BAD peptide and 2.5% DMSO. The reaction is performed until approximately 50% of the ATP is depleted, then stopped with the addition of 20 μl KinaseGlo Plus (Promega Corporation) solution. The stopped reaction is incubated for 10 minutes and the remaining ATP detected via luminescence on the Victor2 (Perkin Elmer). […] IC50, the half maximal inhibitory concentration, represents the concentration of a test compound that is required for 50% inhibition of its target in vitro.

PIM2 = PIM2 (Homo sapiens, UniProt Q9P1W9); experiment: Pim2 ATP depletion assay; settings: 4 μM ATP, 5 nM PIM2
Experimental: The activity of PIM2 is measured using a luciferase-luciferin based ATP detection reagent to quantify ATP depletion resulting from kinase-catalyzed phosphoryl transfer to a peptide substrate. Compounds to be tested are dissolved in 100% DMSO and directly distributed into white 384-well plates at 0.5 μl per well. To start the reaction, 10 μl of 10 nM Pim2 kinase and 20 μM BAD peptide (RSRHSSYPAGT-OH) in assay buffer (50 mM HEPES pH 7.5, 5 mM MgCl2, 1 mM DTT, 0.05% BSA) is added into each well. After 15 minutes, 10 μl of 8 μM ATP in assay buffer is added. Final assay concentrations are 5 nM PIM2, 4 μM ATP, 10 μM BAD peptide and 2.5% DMSO. The reaction is performed until approximately 50% of the ATP is depleted, then stopped with the addition of 20 μl KinaseGlo Plus (Promega Corporation) solution. The stopped reaction is incubated for 10 minutes and the remaining ATP detected via luminescence on the Victor2 (Perkin Elmer).

PIM3 = PIM3 (Homo sapiens, UniProt Q86V86); experiment: Pim3 ATP depletion assay; settings: 40 μM ATP
Experimental: The activity of PIM3 is measured using a luciferase-luciferin based ATP detection reagent to quantify ATP depletion resulting from kinase-catalyzed phosphoryl transfer to a peptide substrate. Compounds to be tested are dissolved in 100% DMSO and directly distributed into white 384-well plates at 0.5 μl per well. To start the reaction, 10 μl of 10 nM Pim3 kinase and 200 μM BAD peptide (RSRHSSYPAGT-OH) in assay buffer (50 mM HEPES pH 7.5, 5 mM MgCl2, 1 mM DTT, 0.05% BSA) is added into each well. After 15 minutes, 10 μl of 80 μM ATP in assay buffer is added. Final assay concentrations are 5 nM PIM1, 40 μM ATP, 100 μM BAD peptide and 2.5% DMSO. The reaction is performed until approximately 50% of the ATP is depleted, then stopped by the addition of 20 μl KinaseGlo Plus (Promega Corporation) solution. The stopped reaction is incubated for 10 minutes and the remaining ATP detected via luminescence on the Victor2 (Perkin Elmer).

Sequence of PIM1 (P11309 whole entry): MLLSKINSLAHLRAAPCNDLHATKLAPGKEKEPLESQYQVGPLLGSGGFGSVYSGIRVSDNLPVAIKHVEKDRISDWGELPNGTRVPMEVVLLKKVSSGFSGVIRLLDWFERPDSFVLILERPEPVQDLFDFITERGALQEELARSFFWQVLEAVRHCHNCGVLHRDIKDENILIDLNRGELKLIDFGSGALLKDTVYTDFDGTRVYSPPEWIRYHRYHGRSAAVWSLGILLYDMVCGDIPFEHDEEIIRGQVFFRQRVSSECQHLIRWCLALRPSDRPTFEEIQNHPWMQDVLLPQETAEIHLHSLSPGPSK
Sequence of PIM2 (Q9P1W9 whole entry): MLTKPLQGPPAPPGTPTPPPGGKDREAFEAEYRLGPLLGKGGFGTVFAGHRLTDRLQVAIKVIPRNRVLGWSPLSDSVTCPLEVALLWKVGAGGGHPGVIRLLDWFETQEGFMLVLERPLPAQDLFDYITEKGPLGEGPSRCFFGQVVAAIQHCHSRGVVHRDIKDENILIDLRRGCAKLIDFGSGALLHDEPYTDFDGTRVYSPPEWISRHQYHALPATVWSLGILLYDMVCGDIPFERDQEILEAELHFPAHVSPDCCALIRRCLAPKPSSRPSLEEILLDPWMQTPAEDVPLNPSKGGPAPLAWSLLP

Compound	IC50 (PIM1) [nM]	IC50 (PIM2) [nM]	IC50 (PIM3) [nM]
CC(C)NC(=O)c1ccc(F)c(-c2ccc(N)c(-c3cc4c(N5CCC[C@H](N)C5)c(F)cnc4cn3)n2)c1 [Example 2, (S)-3-(5-amino-6-(4-(3-aminopiperidin-1-yl)-3-fluoro-1,7-naphthyridin-6-yl)pyridin-2-yl)-4-fluoro-N-isopropylbenzamide]	18	258	37
Cc1cc(-c2ccnc3cnc(-c4nc(-c5c(F)cccc5F)ccc4N)cc23)cc(N)n1 [Example 3, 4-(6-(3-amino-6-(2,6-difluorophenyl)pyridin-2-yl)-1,7-naphthyridin-4-yl)-6-methylpyridin-2-amine]	15	809	25
Cc1cc(-c2ccnc3cnc(-c4nc(-c5cc(C(=O)NC(C)C)ccc5F)ccc4N)cc23)cc(N)n1 [Example 4, 3-(5-amino-6-(4-(2-amino-6-methylpyridin-4-yl)-1,7-naphthyridin-6-yl)pyridin-2-yl)-4-fluoro-N-isopropylbenzamide]	24	350	40
COc1cccc(-c2ccc(N)c(-c3cc4c(N5CCC[C@H](N)C5)ccnc4cn3)n2)n1 [Example 14, (S)-6-(4-(3-aminopiperidin-1-yl)-1,7-naphthyridin-6-yl)-6′-methoxy-2,2′-bipyridin-5-amine]	6	132	8
N[C@H]1CCCN(c2ccnc3ccc(-c4cccc(-c5c(F)cccc5F)n4)cc23)C1 [Example 26, (S)-1-(6-(6-(2,6-difluorophenyl)pyridin-2-yl)quinolin-4-yl)piperidin-3-amine]	16	331	26
N[C@H]1CCCN(c2ccnc3ccc(-c4nccc(-c5c(F)cccc5F)n4)cc23)C1 [Example 29]	6	132	8
N[C@H]1CCCN(c2ccnc3ccc(-c4nccc(-c5ccccc5F)n4)cc23)C1 [Example 30]	8	347	20
N[C@@H]1CN(c2ccnc3ccc(-c4cccc(-c5c(F)cccc5F)n4)cc23)CC[C@H]1F [Example 32, (3R,4R)-1-(6-(6-(2,6-difluorophenyl)pyridin-2-yl)quinolin-4-yl)-4-fluoropiperidin-3-amine]	27	604	42
N[C@@H]1CN(c2ccnc3ccc(-c4cccc(-c5nccs5)n4)cc23)CC[C@H]1F [Example 33, (3R,4R)-4-fluoro-1-(6-(6-(thiazol-2-yl)pyridin-2-yl)quinolin-4-yl)piperidin-3-amine]	22	244	21

Compounds with a lower IC50 (PIM1), results first:

IC50 (PIM1) [nM]	IC50 (PIM2) [nM]	IC50 (PIM3) [nM]	Compound
4	151	13	Nc1ccc(-c2ccc(F)cc2F)nc1-c1cc2c(N3CCC[C@H](N)C3)ccnc2cn1 [Example 17, (S)-2-(4-(3-aminopiperidin-1-yl)-1,7-naphthyridin-6-yl)-6-(2,4-difluorophenyl)pyridin-3-amine]
2	160	8	Nc1ccc(-c2cccc(S(N)(=O)=O)c2)nc1-c1cc2c(N3CCC[C@H](N)C3)ccnc2cn1 [Example 21, (S)-3-(5-amino-6-(4-(3-aminopiperidin-1-yl)-1,7-naphthyridin-6-yl)pyridin-2-yl)benzenesulfonamide]
4	280	10	CS(=O)(=O)c1cccc(-c2ccc(N)c(-c3cc4c(N5CCC[C@H](N)C5)ccnc4cn3)n2)c1 [Example 22, (S)-2-(4-(3-aminopiperidin-1-yl)-1,7-naphthyridin-6-yl)-6-(3-(methylsulfonyl)phenyl)pyridin-3-amine]
2	33	7	C[C@@H]1C[C@H](N)CN(c2ccnc3ccc(-c4cccc(-c5c(F)cccc5F)n4)cc23)C1 [Example 34, (3S,5R)-1-(6-(6-(2,6-difluorophenyl)pyridin-2-yl)quinolin-4-yl)-5-methylpiperidin-3-amine]
